Test results reported in patent US6395745B1, “Alkaloid halide salts of swainsonine and methods of use” (priority 1997, dated 2002).
In brackets after ≈: the same amount, converted by molar mass. Structures can show the parent of a compound that is named as a salt.

Legend:
[1] = Accelerated stability of stressed solid samples, percentage remaining by HPLC; format: physicochemical; conditions: for percentage remaining, condition (e): 40° C. with 75% relative humidity for seven days; for percentage remaining, condition (d): 70° C. with low humidity for seven days; for percentage remaining, condition (c): 105° C. under nitrogen for seven days (*=average of two samples); for percentage remaining, condition (b): 105° C. with atmospheric oxygen for seven days (*=average of two samples); for percentage remaining, condition (a): UV light for 7 days
Excerpt: Samples of swainsonine free base synthesized using synthetic routes developed by Dr. David Dime (Toronto Research Chemicals, Toronto, Ontario) and Dr. William Pearson (University of Michigan, Ann Arbor, Mich.), were recrystallized to obtain either the hydrochloride salt, the hydrobromide salt or the free base of swainsonine. Samples were weighed and exposed to the conditions described below.
To model long-term stability or shelf life, various conditions were used to accelerate the decomposition process. Samples of crystalline prism swainsonine hydrochloride salt and swainsonine free base (a white, fluffy powder obtained from swainsonine hydrochloride were recrystallized from chloroform-methanol-diethyl ether) were weighed and exposed to conditions described below (stressed samples). Unstressed samples were prepared at 1 mg/ml concentration and chromatographed in sextuplicate on each run. After the indicated time interval each stressed sample was diluted with mobile phase at the same concentration as the unstressed sample. The percentage remaining swainsonine hydrochloride or swainsonine free base was calculated based on the percentage of either the hydrochloride or the free base in the unstressed sample.
The conditions included (a) UV light for 7 days; (b) 105° C. with atmospheric oxygen for seven days (*=average of two samples); (c) 105° C. under nitrogen for seven days (*=average of two samples); (d) 70° C. with low humidity for seven days; and (e) 40° C. with 75% relative humidity for seven days. Other tests include (f) UV for 24 hours; (g) 100° C. aqueous solution for two hours; (h) aqueous acidic treatment for 24 hours; (i) aqueous alkali treatment for 4 hours; and (j) (aqueous) 3% hydrogen peroxide for 4 hours. […] The physical properties of swainsonine hydrochloride compared to the free base and swainsonine hydrobromide, and swainsonine hydrofluoride are shown in Table 5.

[2] = Solubility in distilled water at room temperature; format: physicochemical; conditions: distilled water, water
Method: The melting point of the clear swainsonine hydrochloride crystal (prism) was 190-191° C. The solubility of swainsonine hydrochloride in distilled water at room temperature was about 3 g/ml, in contrast to the solubility of swainsonine free base, which is about 0.8 g/ml (see Table 5).

[3] = tested on: early erythroid progenitor cells (CFU-E); experiment: Murine bone marrow progenitor cell assay in methylcellulose, CFU-E; format: cell-based, C57BL/6 mice
Method: Pathogen-free C57BL/6 female mice, 8-9 weeks old, obtained from Jackson Laboratories were used. The room environment and photoperiod were controlled: 24° C.; humidity, 50±20%; 12 hr light and 12 hr dark. Mice were housed one per cage with ad libitum accesses to standard pelleted commercial laboratory diet and to sterile (autoclaved) tap water.
Swainsonine hydrochloride was manufactured by Seres Laboratories, Calif. FBS and methylcellulose (MethoCult M3330) were purchased from Stem Cell Technologies, Inc. (Vancouver. BC). Iscove's modified Dulbecco's medium was prepared using powdered media from Gibco BRL, deionized water and filter sterilization. For the handling of cells, the media was supplemented with 2% FBS and 50 μM β-mercaptoethanol (referred to as IMDM/FBS).
(§1) The healthy and GD0039 treated mice were euthanized by CO2 asphyxiation. Bone marrow (BM) cell suspensions were prepared under sterile conditions by flushing both femurs and tibiae with IMDM/FBS using a 26 gauge needle. Single cell suspensions were made up to 10.0 ml IMDM/FBS. The concentration of nucleated cells in each suspension was determined by triplicate counts on a hemocytometer. A portion of the cells was further diluted in media to the appropriate concentration before plating for the progenitor assay.
Colony-forming units (CFUs) were estimated by the methylcellulose method. One milliliter suspensions, containing 2×10^5 nucleated BM cells, in 0.1 ml of IMDM and 0.9 ml MethoCult (M3330), were plated in triplicate in 35 mm tissue culture dishes. […] The MethoCult M3330 contains 30% FBS and 10 μg/ml erythropoietin and is designed for the growth of early erythroid progenitor cells (CFU-E), which were scored after 3 days of incubation at 37° C. in a humidified atmosphere containing 5% CO2. […] Colonies containing more than 20 cells were scored using an inverted microscope with brightfield optics and 40× or 100× magnification.

[4] = tested on: granulocyte-macrophage progenitor cells (CFU-GM); experiment: Murine bone marrow progenitor cell assay in methylcellulose, CFU-GM; format: cell-based, C57BL/6 mouse; conditions: FIG. 11
Method: as §1
Colony-forming units (CFUs) were estimated by the methylcellulose method. One milliliter suspensions, containing 2×10^5 nucleated BM cells, in 0.1 ml of IMDM and 0.9 ml MethoCult (M3330), were plated in triplicate in 35 mm tissue culture dishes. Swainsonine hydrochloride or swainsonine were added to certain plates, in 0.1 ml of IMDM at concentrations of 30 μg/ml and 3 μg/ml, which gave final concentrations of […]. The MethoCult M3330 contains 30% FBS and 10 μg/ml erythropoietin and is designed for the growth of early erythroid progenitor cells (CFU-E), which were scored after 3 days of incubation at 37° C. in a humidified atmosphere containing 5% CO2. […] Colonies containing more than 20 cells were scored using an inverted microscope with brightfield optics and 40× or 100× magnification. […]

murine tumor cells = conditions: organ-colonization and spontaneous metastasis assays; cited from earlier work
tumor cell invasion = conditions: in vitro; cited from earlier work
human MeWo melanoma = conditions: orally or by mini-osmotic pumps; cited from earlier work
HT29m colon carcinoma = conditions: orally or by mini-osmotic pumps; cited from earlier work
NK cell = conditions: cited from earlier work
LAK cell = conditions: cited from earlier work
[5] = tested on: splenic and bone marrow (BM) cell; conditions: cited from earlier work
[6] = mouse, in vivo; cited from earlier work
[7] = mouse, in vivo; cited from earlier work; remark: listed apart in the source

O[C@H]1[C@H]2[C@H](O)CCCN2C[C@H]1O [swainsonine hydrobromide, Swainsonine hydrobromide salt]
percentage remaining, condition (e) ([1]; hydrobromide salt): 91.4%
percentage remaining, condition (d) ([1]; hydrobromide salt): 95.5%
percentage remaining, condition (c) ([1]; hydrobromide salt): 92.1%
percentage remaining, condition (b) ([1]; hydrobromide salt): 88.3%
percentage remaining, condition (a) ([1]; hydrobromide salt): 71.1%

O[C@H]1[C@H]2[C@H](O)CCCN2C[C@H]1O [swainsonine]
solubility ([2]; Table 5): 800 mg/mL (≈ 4620 mM)
solubility ([2]; room temperature): ~800 mg/mL (≈ 4620 mM)
percentage remaining, condition (e) ([1]; listed as SW): 102.5%
percentage remaining, condition (d) ([1]; listed as SW): 98.5%
percentage remaining, condition (c) ([1]; listed as SW): 9.7%*
percentage remaining, condition (b) ([1]; listed as SW): 20.0%*
percentage remaining, condition (a) ([1]; listed as SW): 99.3%
increase in the number of early CFU-E ([3]; 0.03 μg/ml to 10 μg/ml in vitro): ~3 fold
number of early CFU-E, counted on day 3 ([3]; added to methylcellulose in vitro): significantly increased
mean CFU-E of triplicate counts ± SD from 2 × 10^5 nucleated BM cells ([3]; mouse 1 (control), 0.3 μg/ml in vitro, in vitro control 54 ± 12): 108 ± 21
mean CFU-E of triplicate counts ± SD from 2 × 10^5 nucleated BM cells ([3]; mouse 1 (control), 3 μg/ml in vitro, in vitro control 54 ± 12): 101 ± 12
mean CFU-E of triplicate counts ± SD from 2 × 10^5 nucleated BM cells ([3]; mouse 2 (GD0039 treated in vivo, 20 μg/day for four days), 0.3 μg/ml in vitro): 71 ± 15
mean CFU-E of triplicate counts ± SD from 2 × 10^5 nucleated BM cells ([3]; mouse 2 (GD0039 treated in vivo, 20 μg/day for four days), 3 μg/ml in vitro): 103 ± 1
effect on granulocyte-macrophage progenitor cells in vitro [4]: stimulate
metastatic potential of treated murine tumor cells (murine tumor cells): less metastatic
tumor cell invasion through extracellular matrix (tumor cell invasion): block tumor cell invasion
growth rate of tumor xenografts (human MeWo melanoma): inhibited the growth rate
growth rate of tumor xenografts (HT29m colon carcinoma): inhibited the growth rate
NK cell activity (NK cell): increase
LAK cell activity (LAK cell): increase
splenic and bone marrow (BM) cell proliferation [5]: increase
lethality of various chemotherapeutic agents [6]: protect against the lethality
lethal doses of irradiation [7]: protect
